Experimental data reported in patent US5380834A, “Immuno-suppressive agent” (Ishihara Sangyo Kaisha Ltd., priority 1992, dated 1995).

Legend:
[1] = system: IgGl antibody production from murine spleen B cells; experiment: Effects on the IgGl antibody production from murine spleen cells (LPS + IL4); format: cell-based, BALB/c mouse; conditions: Mus musculus, B-cell, 168 h; spleen B cells, LPS 10 μg/ml, IL4 100 U/ml, 7 days, enzyme-immunoassay; read-out: IC50 value, IgGl antibody production
[2] = system: Carrageenan-induced acute inflammation in rats; experiment: Carrageenan-induced paw edema model (anti-inflammatory activity); format: in vivo, SD male rat; conditions: 50 mg/Kg orally one hour before carrageenan, 3 hours, n=4; control 144 ± 8; P < 0.01 (No. 29), P < 0.05 (Nos. 1, 17)
Procedure: A test for an anti-inflammatory activity was conducted by means of carrageenan-induced paw edema model which is commonly used for evaluation of the effectiveness of a common anti-inflammatory agent (NSAID).
0.1 ml of a 1% λ-carrageenan solution was injected intradermally at the sole of the right paw of a SD male rat (six weeks old). Three hours later, the sole volumes of paws on both sides were measured, and the difference in the volume between the right paw and the left paw was taken as the degree of edema. The test compound was orally administered in an amount of 1 ml/100 g (body weight) one hour prior to the administration of carrageenan. To the control group, a physiological saline was administered in the same amount.

[3] = system: murine mixed lymphocyte reaction (spleen cells of BALB/c and C57BL/6 mice); experiment: Effects on the murine mixed lymphocyte reaction (3H-TdR uptake); format: cell-based; conditions: Mus musculus, BALB/c + C57BL/6 spleen cells, 48 hours, read-out: IC50 value, b (murine mixed lymphocyte reaction)
[4] = system: IgE antibody production from murine spleen B cells; experiment: Effects on the IgE antibody production from murine spleen cells (LPS + IL4); format: cell-based, BALB/c mouse; conditions: Mus musculus, B-cell, 168 h; spleen B cells, LPS 10 μg/ml, IL4 100 U/ml, 7 days, enzyme-immunoassay; read-out: IC50 value, IgE antibody production

IC50 [1] | IC50 [3] | IC50 [4] | Compound | Swelling of paw, Average ± SD [2]
1 µg/mL | 270 µg/mL | 3.2 µg/mL | O=C(O[C@H]1C=C[C@H]2CO[C@@H]1O2)c1ccco1 [Compound 17, 1,6-anhydro-3,4-dideoxy-2-O-(2-furancarbonyl)-β-D-threo-hex-3-enopyranose] | 95 ± 26 × 10^-2 cm^3
380 µg/mL | > 1000 µg/mL | 320 µg/mL | C#C[C@]1(O)C=C[C@H]2CO[C@@H]1O2 [Compound 29] | 97 ± 22 × 10^-2 cm^3
37 µg/mL | 11 µg/mL | 32 µg/mL | O[C@H]1C=C[C@H]2CO[C@@H]1O2 [Compound 1, 1,6-anhydro-3,4-dideoxy-β-D-threo-hex-3-enopyranose] | 100 ± 33 × 10^-2 cm^3
